# Source: patent publication US9440957B2, “Compounds and compositions for modulating EGFR Activity” (Novartis AG, priority 2012, dated 2016)
# Read-outs that look alike come from different tables or passages of the source.
# Assays:
# [1] = biological target: T1, EGFR(L858R/T790M) (Homo sapiens, UniProt P00533, L858R/T790M); assay: EGFR biochemical assay (HTRF), IC50 determinations
# T1 construct: purchased from Carna (GST-a.a. 669-1210)
# In short: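 Two formats were run: compound preincubated at room temperature with enzyme and biotin-TK peptide before ATP starts the reaction, or no preincubation with enzyme added last. Reactions ran 60 min at room temperature and were stopped with EDTA. Phosphopeptide was read by HTRF (PT66K/SAXL, 1 h).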
# [2] = biological target: H3255 (EGFR L858R) (Homo sapiens, UniProt P00533, L858R); assay: EGFR target modulation in H3255 cell line (phospho-EGFR Y1173 ELISA); type: cell-based
# Sequence of H3255 (EGFR L858R) (P00533 25-1210 L858R): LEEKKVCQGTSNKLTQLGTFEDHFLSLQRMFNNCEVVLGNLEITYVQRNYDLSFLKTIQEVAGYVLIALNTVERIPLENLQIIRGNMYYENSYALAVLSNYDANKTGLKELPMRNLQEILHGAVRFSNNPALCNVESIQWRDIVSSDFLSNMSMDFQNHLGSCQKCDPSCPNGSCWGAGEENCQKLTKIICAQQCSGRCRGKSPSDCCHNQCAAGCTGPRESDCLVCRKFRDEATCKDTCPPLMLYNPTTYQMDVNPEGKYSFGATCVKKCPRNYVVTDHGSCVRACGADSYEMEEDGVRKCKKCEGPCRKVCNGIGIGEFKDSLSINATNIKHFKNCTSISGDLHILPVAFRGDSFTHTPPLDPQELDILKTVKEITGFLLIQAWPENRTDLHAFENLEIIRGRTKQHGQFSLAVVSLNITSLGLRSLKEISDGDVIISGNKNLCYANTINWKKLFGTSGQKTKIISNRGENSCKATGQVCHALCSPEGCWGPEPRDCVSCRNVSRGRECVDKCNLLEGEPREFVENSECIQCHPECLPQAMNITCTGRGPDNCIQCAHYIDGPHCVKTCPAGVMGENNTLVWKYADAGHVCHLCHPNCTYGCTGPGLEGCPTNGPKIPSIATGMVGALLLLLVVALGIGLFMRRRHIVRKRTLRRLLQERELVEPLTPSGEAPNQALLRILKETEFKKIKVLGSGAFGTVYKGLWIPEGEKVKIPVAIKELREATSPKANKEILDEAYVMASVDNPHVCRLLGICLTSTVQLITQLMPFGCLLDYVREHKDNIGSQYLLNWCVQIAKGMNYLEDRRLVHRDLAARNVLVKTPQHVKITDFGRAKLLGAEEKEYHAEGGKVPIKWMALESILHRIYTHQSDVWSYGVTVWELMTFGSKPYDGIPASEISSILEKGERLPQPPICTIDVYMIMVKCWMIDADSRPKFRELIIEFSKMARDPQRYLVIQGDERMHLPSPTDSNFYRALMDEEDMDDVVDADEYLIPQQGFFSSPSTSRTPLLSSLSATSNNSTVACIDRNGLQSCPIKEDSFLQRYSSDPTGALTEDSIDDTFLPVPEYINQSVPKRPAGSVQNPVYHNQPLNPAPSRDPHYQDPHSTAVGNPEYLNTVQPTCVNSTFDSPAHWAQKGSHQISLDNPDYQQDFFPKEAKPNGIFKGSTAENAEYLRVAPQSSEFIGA
# In short: (§1)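 3 h compound exposure of cells in 10% FBS/RPMI, 37 °C; lysis on ice 20 min; lysate captured overnight at 4 °C on anti-EGFR-coated plates; anti-rabbit-HRP, chemiluminescence.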
# [3] = biological target: H1975 (EGFR L858/T790M) (Homo sapiens, UniProt P00533, L858R/T790M); assay: EGFR target modulation in H1975 cell line (phospho-EGFR Y1173 ELISA); type: cell-based
# In short: as §1
# [4] = biological target: HaCaT (EGFR WT) (Homo sapiens, UniProt P00533); assay: EGFR target modulation in HaCaT (EGFR-WT) cell line (phospho-EGFR Y1173 ELISA); type: cell-based; details: value in parentheses
# Sequence of HaCaT (EGFR WT) (P00533 25-1210): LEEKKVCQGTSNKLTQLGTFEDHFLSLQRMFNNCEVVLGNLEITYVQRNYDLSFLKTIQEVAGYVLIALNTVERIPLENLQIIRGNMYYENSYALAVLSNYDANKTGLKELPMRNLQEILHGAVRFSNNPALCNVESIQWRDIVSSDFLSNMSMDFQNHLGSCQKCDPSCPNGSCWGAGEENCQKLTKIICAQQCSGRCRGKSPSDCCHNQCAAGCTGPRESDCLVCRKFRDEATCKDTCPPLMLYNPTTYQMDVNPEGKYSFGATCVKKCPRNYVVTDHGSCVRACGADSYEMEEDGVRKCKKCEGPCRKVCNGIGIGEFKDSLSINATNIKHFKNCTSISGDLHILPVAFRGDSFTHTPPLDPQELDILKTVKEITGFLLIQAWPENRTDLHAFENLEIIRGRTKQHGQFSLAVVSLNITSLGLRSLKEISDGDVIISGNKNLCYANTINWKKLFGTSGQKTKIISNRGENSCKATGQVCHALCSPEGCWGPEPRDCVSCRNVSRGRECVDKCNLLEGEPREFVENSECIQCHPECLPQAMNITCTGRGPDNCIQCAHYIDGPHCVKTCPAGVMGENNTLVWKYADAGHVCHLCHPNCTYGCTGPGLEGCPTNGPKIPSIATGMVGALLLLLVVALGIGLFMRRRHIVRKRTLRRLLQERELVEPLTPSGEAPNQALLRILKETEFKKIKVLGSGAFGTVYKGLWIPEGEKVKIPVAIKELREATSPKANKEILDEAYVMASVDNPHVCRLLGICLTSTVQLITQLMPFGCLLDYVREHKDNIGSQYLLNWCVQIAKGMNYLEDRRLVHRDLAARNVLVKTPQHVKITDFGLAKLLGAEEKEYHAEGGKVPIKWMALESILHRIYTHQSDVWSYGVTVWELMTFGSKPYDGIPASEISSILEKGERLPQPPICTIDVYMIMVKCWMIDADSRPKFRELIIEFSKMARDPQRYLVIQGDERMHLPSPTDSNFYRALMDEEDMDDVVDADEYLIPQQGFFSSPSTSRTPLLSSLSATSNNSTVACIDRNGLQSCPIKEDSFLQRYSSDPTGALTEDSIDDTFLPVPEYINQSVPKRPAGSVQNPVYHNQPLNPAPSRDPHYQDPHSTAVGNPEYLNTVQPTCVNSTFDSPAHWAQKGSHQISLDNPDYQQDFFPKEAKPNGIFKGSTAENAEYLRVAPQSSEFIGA
# Procedure: EGFR Target Modulation in HaCaT (EGFR-WT) Cell Line Tissue Culture. […] The serial diluted compounds were transferred to the plate containing cells by using a 50 nl Pin Head device (Perkin Elmer) and the cells were placed back in the incubator for 3 hours. […] Phospho-EGFR ([…]) ELISA. Solid white high-binding ELISA plates (Greiner #781074) were coated with 5 ug/ml anti-EGFR capture antibody (R&D Systems #AF231) overnight in 50 mM carbonate/bicarbonate pH 9.5 buffer. […] Wash steps were carried out with a Bio-Tek ELx405 SelectTM using 4 cycles of 100 ul TBS-T (20 mM Tris, 137 mM NaCl, 0.05% Tween-20) per well. […] Lysis was allowed to occur for 20 minutes on ice. A 25 ul aliquot was added to each well of the blocked ELISA plate and incubated overnight at 4° C. with gentle shaking. […] After washing, 1:2,000 anti-rabbit-HRP (Cell Signaling #7074) in 0.2% BSA/TBS-T was added and incubated for 1 hour at room temperature. Chemiluminescent detection was carried out with SuperSignal ELISA Pico substrate (ThermoScientific #37069). Signal was read on EnVision plate reader using built-in UltraLUM setting. Data Analysis. Control cells treated with EGF were set to 100% maximum response. […] With these parameters, the IC50's for each compound in each cell line was calculated using non-linear curve fitting analysis.
# [5] = biological target: HCC827 (Del E746-A750) (Homo sapiens, UniProt P00533, DEL746-750); assay: EGFR target modulation in HCC827 cell line (phospho-EGFR Y1173 ELISA); type: cell-based
# In short: as §1
# [6] = biological target: HEKn (EGFR WT) (Homo sapiens, UniProt P00533); assay: EGFR target modulation in HEKn (EGFR-WT) cell line (phospho-EGFR Y1173 ELISA); type: cell-based; details: value outside parentheses
# Sequence of HEKn (EGFR WT) (P00533 25-1210): as above
# In short: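 Read-out was Y1173 phosphorylation, measured by chemiluminescent ELISA with anti-EGFR capture of lysates. HEKn keratinocytes (wild-type EGFR) were treated with compound for 3 h.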
# [7] = EGFR (L858R/T790M) with 90 min pre-incubation, read-out: IC50 (μM) Column B
# [8] = EGFR (L858R/T790M) with no pre-incubation, read-out: IC50 (μM) Column A
# T1 sequence (P00533 669-1210 T790M/L858R): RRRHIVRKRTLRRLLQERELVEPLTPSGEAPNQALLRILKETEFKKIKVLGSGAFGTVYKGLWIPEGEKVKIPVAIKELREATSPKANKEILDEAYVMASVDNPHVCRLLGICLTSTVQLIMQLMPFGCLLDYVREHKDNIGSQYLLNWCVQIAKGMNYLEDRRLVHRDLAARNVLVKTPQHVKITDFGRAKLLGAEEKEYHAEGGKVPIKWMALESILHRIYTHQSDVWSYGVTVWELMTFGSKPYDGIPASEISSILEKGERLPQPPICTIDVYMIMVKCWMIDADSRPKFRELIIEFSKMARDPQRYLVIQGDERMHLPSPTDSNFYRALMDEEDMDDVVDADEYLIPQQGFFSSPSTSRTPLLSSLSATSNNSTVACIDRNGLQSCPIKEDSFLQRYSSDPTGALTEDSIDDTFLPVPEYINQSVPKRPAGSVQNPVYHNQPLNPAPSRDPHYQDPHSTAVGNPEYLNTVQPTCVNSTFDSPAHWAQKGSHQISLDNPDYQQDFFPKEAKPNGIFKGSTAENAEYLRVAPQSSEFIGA
SMILES,"IC50 [1, 7]","IC50 [1, 8]",IC50 [2],IC50 [3],IC50 [4],IC50 [5],IC50 [6]
Cc1cc(C(=O)Nc2nc3cccc(C(F)(F)F)c3n2[C@@H]2CCCCN(C(=O)/C=C/CN(C)C)C2)cc(C)n1 [Example 17-188],0.003 µM,0.04 µM,0.039 µM,0.016 µM,0.87 µM,0.01 µM,
"C=CC(=O)N1CCCC[C@@H](n2c(NC(=O)c3cc(C)nc(C)c3)nc3ccc(OCCN4CCCC4)c(Cl)c32)C1 [Example 15, (R)—N-(1-(1-acryloylazepan-3-yl)-7-chloro-6-(2-(pyrrolidin-1-yl)ethoxy)-1H-benzo[d]imidazol-2-yl)-2,6-dimethylisonicotinamide]",< 0.001 µM,0.004 µM,0.003 µM,0.001 µM,0.139 µM,0.001 µM,
C/C=C/C(=O)N1CCCC[C@@H](n2c(NC(=O)c3ccnc(C)c3)nc3ccc(OCCN4CCCC4)c(Cl)c32)C1 [Example 17-194],0.006 µM,0.068 µM,0.067 µM,0.041 µM,0.576 µM,0.016 µM,
C=CC(=O)N1CCCC[C@@H](n2c(NC(=O)c3ccnc(C)c3)nc3ccc(OCCN4CCCC4)c(Cl)c32)C1 [Example 17-193],< 0.001 µM,0.002 µM,0.002 µM,0.001 µM,0.044 µM,0.001 µM,
Cc1cc(C(=O)Nc2nc3cccc(C(F)(F)F)c3n2[C@@H]2CCCCN(C(=O)/C=C/CN(C)C)C2)ccn1 [Example 17-187],0.001 µM,0.022 µM,0.014 µM,0.013 µM,0.475 µM,0.002 µM,
C/C=C/C(=O)N1CCCC[C@@H](n2c(NC(=O)c3cc(C)nc(C)c3)nc3cc(CN4CC[C@H](OC)C4)ccc32)C1 [Example 17-174],0.01 µM,0.21 µM,0.202 µM,0.093 µM,> 10 µM,,> 10 µM
C=CC(=O)N1CCCC[C@@H](n2c(NC(=O)c3cc(C)nc(C)c3)nc3cc(CN4CC[C@H](F)C4)cc(C)c32)C1 [Example 17-158],< 0.001 µM,0.002 µM,0.002 µM,< 0.001 µM,0.067 µM,,0.082 µM
Cc1cc(C(=O)Nc2nc3cccc(Cl)c3n2[C@@H]2CCCCN(C(=O)/C=C/C(C)(C)N(C)C)C2)ccn1 [Example 3-18],0.108 µM,0.135 µM,0.719 µM,1.05 µM,> 10 µM,0.48 µM,
"Cc1cc(C(=O)Nc2nc3cccc(Cl)c3n2C2CCCCN(C(=O)/C=C/CN(C)C)C2)cc(P(C)(C)=O)n1 (single isomer, unassigned) [Example 21-9A]",3.7 µM,32.4 µM,6.58 µM,> 10 µM,> 10 µM,,
Cc1cc(C(=O)Nc2nc3cccc(Cl)c3n2[C@H]2CCCCN(C(=O)/C=C/CN(C)C)C2)cc(C)n1 [Example 17-197],0.117 µM,1.67 µM,2 µM,0.935 µM,> 10 µM,,
Cc1cc(C(=O)Nc2nc3cccc(Cl)c3n2[C@@H]2CCCCN(C(=O)C3=CCCN(C)C3)C2)ccn1 [Example 3-16],0.36 µM,0.352 µM,2.53 µM,0.899 µM,> 10 µM,,
Cc1cc(C(=O)Nc2nc3cccc(Cl)c3n2[C@@H]2CCCCN(C(=O)/C=C/CNC3(C)CC3)C2)ccn1 [Example 17-192],< 0.001 µM,0.003 µM,0.002 µM,0.002 µM,0.037 µM,,
"C=CC(=O)N1CCNCC(n2c(NC(=O)c3ccnc(C)c3)nc3cccc(Cl)c32)C1 (centres unmarked) [Example 13, N-(1-(1-acryloyl-1,4-diazepan-6-yl)-7-chloro-1H-benzo[d]imidazol-2-yl)-2-methylisonicotinamide]",0.113 µM,1.63 µM,0.312 µM,0.113 µM,> 10 µM,,
C=CC(=O)N1CCCC[C@@H](n2c(NC(=O)c3cc(C)nc(C)c3)nc3cc(CN4CC[C@H](OC)C4)ccc32)C1 [Example 17-175],< 0.001 µM,0.004 µM,0.004 µM,0.002 µM,0.522 µM,,0.289 µM
C/C=C/C(=O)N1CCCC[C@@H](n2c(NC(=O)c3cc(C)nc(C)c3)nc3ccc(OCCN4CCCC4)c(Cl)c32)C1 [Example 17-195],0.007 µM,0.116 µM,0.181 µM,0.036 µM,7.12 µM,0.045 µM,
Cc1cc(C(=O)Nc2nc3cccc(Cl)c3n2[C@@H]2CCCCN(C(=O)/C=C/CN(C)C)C2)cc(P(C)(C)=O)n1 [Example 17-182],0.022 µM,0.472 µM,0.422 µM,0.77 µM,> 10 µM,,
C=CC(=O)N1CCCC[C@@H](n2c(NC(=O)c3cc(C)nc(C)c3)nc3cc(CN4CC[C@@H](F)C4)cc(C)c32)C1 [Example 17-159],< 0.001 µM,0.002 µM,0.002 µM,< 0.001 µM,0.084 µM,,0.07 µM
Cc1cc(C(=O)Nc2nc3cccc(Cl)c3n2[C@@H]2CCCCN(C(=O)/C=C/CNC3CC3)C2)ccn1 [Example 17-190],< 0.001 µM,0.003 µM,0.003 µM,0.002 µM,0.047 µM,,
"C=CC(=O)N1CCN(C(C)=O)CC(n2c(NC(=O)c3ccnc(C)c3)nc3cccc(Cl)c32)C1 (centres unmarked) [Example 14, N-(1-(1-acetyl-4-acryloyl-1,4-diazepan-6-yl)-7-chloro-1H-benzo[d]imidazol-2-yl)-2-methylisonicotinamide]",0.009 µM,0.16 µM,0.071 µM,0.027 µM,2.06 µM,,
"CN(C)C/C=C/C(=O)N1CCCCC(n2c(NC(=O)c3ccnc(P(C)(C)=O)c3)nc3cccc(Cl)c32)C1 (single isomer, unassigned) [Example 21-10B]",0.014 µM,0.222 µM,0.077 µM,0.421 µM,6.09 µM,,
"Cc1cc(C(=O)Nc2nc3cccc(Cl)c3n2C2CCCCN(C(=O)/C=C/CN(C)C)C2)cc(P(C)(C)=O)n1 (single isomer, unassigned) [Example 21-9B]",0.024 µM,0.894 µM,0.312 µM,0.314 µM,> 10 µM,,
